This is an account of results in patent US20170246194A1, “Acetaminophen-Containing Analgesic Formulations With Reduced Hepatotoxicity” (Purdue Pharma L.P., priority 2014, published 2017).

Series [1] concerns male C3HeB/FeJ mice. Description: Toxicity in mice: acetaminophen-induced liver injury, plasma ALT activity. The following applies: fasted mice; for protection of the liver against acetaminophen damage (maximal ALT elevation): cimetidine 20% and/or methionine 30% of the acetaminophen dose. In kind it is in vivo. On the procedure: This example is performed as described in Saito, Hepatology, 51(1):246, 2010, which is incorporated by reference herein.
At selected times after acetaminophen treatment, groups of animals are killed by way of cervical dislocation under anesthesia. Blood is drawn from the vena cava into heparinized syringes and centrifuged. The plasma is used for determination of alanine aminotransferase (ALT) activities. Plasma ALT activities are determined and expressed as international units per liter.
After establishing the model in the pilot phase, five experimental groups are studied. The groups receive vehicles containing the ingredients noted in Table B. If the methionine or cimetidine is ineffective or is fully protective, the doses are adjusted and the experiment repeated until the relative contribution of each relative to the combination is determined.
The outcome is maximal ALT elevation. Data are expressed as the mean±standard error. Comparison between groups is performed analysis of variance, or alternative non-parametric procedures if the data is not normally distributed. P<0.05 is considered significant.

For series [2] the following is noted: normally, in man; cited from earlier work.
Series [3] concerns volunteers. The following applies: human volunteers, given with acetaminophen 4 grams a day.
Excerpt: All subjects participate in an initial multiple dose study of 1 gram of acetaminophen given four times a day (four grams a day), protected by twice a day transaminase determinations. […] Subjects with no elevation are terminated from the study. Subjects rest for three weeks after the first phase and then return for the second phase.
Subjects dose at 4 grams of acetaminophen a day. They have twice daily blood samples for serum transaminases, and proceed to the next day's dosing only if their most recent transaminase values are no more than 3 times the upper limit of normal.
The outcome variable is maximal transaminase elevations for each subject relative to baseline tested by ANOVA for each formulation. The test article is hepato-protective if there is a significant (P<0.05) difference in outcome for the formulation.
Subjects with transaminase elevations are followed at intervals to ensure that their values return to normal.

For the molecule `CC(=O)Nc1ccc(O)cc1` [acetaminophen, N-acetyl-p-aminophenol], the “liver injury (maximal ALT elevation)” value in series [1] (acetaminophen alone, intraperitoneal single dose) is “causes liver injury”. The “ingested dose metabolized to the non-toxic sulfate or glucuronide” value in series [2] is listed as 96%.
With `CN/C(=N/CCSCc1nc[nH]c1C)NC#N` [cimetidine], in series [1], the “protection of the liver against acetaminophen damage (maximal ALT elevation)” value was “protected against damage”. Also, the serious adverse effects result in series [3] is given as “no additional serious adverse effects”.
`CSCC[C@H](N)C(=O)O` [methionine]: the “protection of the liver against acetaminophen damage (maximal ALT elevation)” value in series [1] is “protected against damage”. Besides, the serious adverse effects result in series [3] is listed as “no additional serious adverse effects”.
